Test results taken from patent EP4786487A1, “PEPTIDE” (Peptidream Inc, priority 2023, dated 2025).
Starred links: 1 amine or outer side, 2 acyl side, 3 side chain; linkers in the order of their positions; H or OH if unused. Positions of bridges follow the written chain, without caps; N, C: chain ends. Non-standard residues stand in square brackets, D forms with d. Residues, ends and D or L forms follow the SMILES beside them. Phe(3-OCH2COOH) = N[C@@H](Cc1cccc(OCC(=O)O)c1)C(=O)O; Phe(4-COOH) = N[C@@H](Cc1ccc(C(=O)O)cc1)C(=O)O; Gly(N(CH2)3COOH) = O=C(O)CCCNCC(=O)O; X1 = CCCCCCC[C@H](N[*:1])C(=O)[*:2]; NMeF = CN[C@@H](Cc1ccccc1)C(=O)O; NMeA = CN[C@@H](C)C(=O)O

Experiments:
[1] = biological target: T1, GDF-11 (Homo sapiens, UniProt O95390); assay: Reporter gene assay for myostatin signaling in HEK-Blue TGF-β Cells, GDF-11; type: cell-based; conditions: GDF-11 3 ng/mL
T1 construct: purchased R&D systems 1958-GD-G8/CF
T1 sequence (O95390 299-407): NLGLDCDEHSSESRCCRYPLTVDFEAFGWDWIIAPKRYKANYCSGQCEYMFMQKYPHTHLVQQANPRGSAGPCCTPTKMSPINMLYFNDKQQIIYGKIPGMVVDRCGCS
Description: (§1) In this Example, the in vitro activity of the peptide Myostatin_99_v145 (SEQ ID NO: 30) was evaluated using a reporter gene assay for myostatin signaling.
(§2) HEK-Blue (trademark) TGF-β Cells (hkb-tgfbv2, InvivoGen) were cultured in DMEM High glucose GlutaMAX (10569010, Thermo) containing 10% FBS (Heat-inactivated FBS QUALIFIED, 10270-106, Gibco), […] Normocin (ant-nr-05, InvivoGen), […] Zeocin (ant-zn-05, InvivoGen), and 50 µg/mL Gentamicin (11980-14, Nacalai Tesque). The cultured HEK-Blue (trademark) TGF-β Cells were suspended in an assay medium containing DMEM High glucose GlutaMAX, 50 µg/mL Gentamicin, and 1% bovine serum albumin (A7030, Sigma). The cells were seeded at 4 × 10^4 cells/well onto a 96-well plate (356461, Corning), namely BioCoat poly-D-lysine multi-well plate, and allowed to stand for 30 min. […]
(§3) To each well of a UV-Star µClear 96-well (655801, Greiner), 180 µL of Detection buffer (prepared by diluting, with 17.64 mL of distilled water, 180 µL of QUANTI-Blue buffer and 180 µL of QUANTI-Blue solution) was dispensed. […] The plate was covered and incubated in a CO2 incubator for 3 to 5 hours, and absorbance was measured (Envision 2104, PerkinElmer, 620 nm/bp 40 nm). Based on the absorbance, IC50 values of the peptide were calculated using software (Prism 9, GraphPad).

[2] = biological target: T2, activin A (Homo sapiens, UniProt P08476); assay: Reporter gene assay for myostatin signaling in HEK-Blue TGF-β Cells, activin A; type: cell-based; conditions: activin A 3 ng/mL
T2 construct: purchased R&D systems 338-AC-010/CF
T2 sequence (P08476 311-426): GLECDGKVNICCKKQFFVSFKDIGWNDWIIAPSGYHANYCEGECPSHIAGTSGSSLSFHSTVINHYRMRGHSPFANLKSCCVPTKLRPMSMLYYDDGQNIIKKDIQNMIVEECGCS
Description: as §1, §2, §3

[3] = system: B10-mdx mice; assay: Orally administered peptide, improvement of muscle strength in B10-mdx mice; type: in vivo, C57BL/10-mdx/Jcl mice; conditions: oral administration 65 and 200 mg/kg once a week, 4 times, after fasting; Fig. 6
Description: In this Example, the effect of the peptide Myostatin_99_v145 (SEQ ID NO: 30) was evaluated on improvement of muscle strength when the peptide was orally administered to DMD model mice.
B10-mdx mice were used as the DMD model mice. To five-week-old female C57BL/10-mdx/Jcl mice (CLEA Japan, Inc.; NPL 17), the peptide or solvent control (Vehicle) PBS was subcutaneously administered once a week for 4 weeks. In addition, the peptide or the solvent control, namely 30% Labrasol/PBS, was administered orally to the DMD model mice once a week after fasting in a total of 4 times.
Using a smart-type grip strength meter for rats and mice (MK-380V; Muromachi Kikai Co., Ltd.), forelimb and hindlimb grip strength measurements were performed on the day of completion of the acclimation period (grouping day; 5-week-old), and on Day 7 (6-week-old), Day 14 (7-week-old), Day 20 (8-week-old), and Day 27 (9-week-old). The measurements were conducted with individual identification numbers blinded so that the examiner was unaware of the test conditions of the mice. The grip strength was measured seven times consecutively, and the average of five points, excluding the two points: the highest and lowest values, was used as individual data.

IC50 ([1]; read-out: IC50 (nmol/L) GDF11): 61.2 nmol/L
IC90 ([1]; read-out: IC90 (nmol/L) GDF11): 702 nmol/L
IC50 ([2]; read-out: IC50 (nmol/L) Activin A): > 20000 nmol/L
IC90 ([2]; read-out: IC90 (nmol/L) Activin A): > 20000 nmol/L
Structure (SMILES): CCCCCCC[C@@H]1NC(=O)[C@H](Cc2ccccc2)N(C)C(=O)[C@H](CCCNC(=N)N)NC(=O)[C@H](Cc2ccc(C(=O)O)cc2)NC(=O)[C@H](Cc2cccc(OCC(=O)O)c2)NC(=O)[C@H](C)N(C)C(=O)[C@H]([C@@H](C)CC)NC(=O)[C@H](Cc2ccccc2)N(C)C(=O)[C@H](Cc2ccc(O)cc2)NC(=O)[C@H](Cc2c[nH]c3ccccc23)NC(=O)[C@H](C)NC(=O)CN(CCCC(=O)O)C(=O)CSC[C@H](C(=O)O)NC(=O)[C@H](Cc2ccccc2)N(C)C(=O)[C@H](C)N(C)C1=O [Myostatin_99_v145] ({CH2CO}-[Gly(N(CH2)3COOH)]AWY[NMeF]I[NMeA][Phe(3-OCH2COOH)][Phe(4-COOH)]R[NMeF][X1][NMeA][NMeF][dC]-OH; thioether N-15)
time-course change in grip strength [3]: continuous increase in grip strength was observed in a dose-dependent manner
